Assay results reported in ChEMBL document CHEMBL3044853, “Anti-HIV-1 and cytotoxicity studies of piperidyl-thienyl chalcones and their 2-pyrazoline derivatives” (Med Chem Res, 2012).

Experiments:
CCRF-CEM = experiment: Cytotoxicity against Homo sapiens (human) CEM cells after 5 days celltiter 96 aqueous assay; assay type: cell-based; conditions: 120 h
Vero = experiment: Cytotoxicity against Chlorocebus aethiops (African green monkey) Vero cells after 5 days celltiter 96 aqueous assay; assay type: cell-based; conditions: Chlorocebus sabaeus, 120 h
[1] = test system: Human immunodeficiency virus 1; experiment: Antiviral activity against 0.1 MOI of Human immunodeficiency virus 1 LAI infected human PBM cells after 2 to 3 hr by scintillation counting analysis in presence of [3H]thymidine-5'-triphosphate; assay type: functional, organism-based; conditions: PBMC
PBMC = experiment: Cytotoxicity against Homo sapiens (human) PBMCs after 5 days celltiter 96 aqueous assay; assay type: cell-based; conditions: 120 h

EC50 [1] [µM] | EC90 [1] [µM] | Compound | IC50 (CCRF-CEM) [µM] | IC50 (Vero) [µM] | IC50 (PBMC) [µM]
8.4 | 29 | O=C(/C=C/c1ccc(N2CCCCC2)cc1)c1sccc1Cl | 12.2 | 18.1 | 32.1
5.8 | 27.8 | O=C(/C=C/c1ccc(N2CCCCC2)cc1)c1sccc1Br | 12.5 | 18 | 39.3
11.6 | ≥ 100 | O=C(/C=C/c1ccc(N2CCCCC2)cc1)c1ccc(I)s1 | 22 | 56.5 | > 100
2.5 | 19.6 | Cc1ccsc1C(=O)/C=C/c1ccc(N2CCCCC2)cc1 | 9.9 | 63.9 | 26.4
56 | ≥ 100 | O=C(/C=C/c1ccc(N2CCCCC2)cc1)c1ccsc1 | 32.1 | 34.4 | > 100
46.5 | ≥ 100 | O=C(/C=C/c1ccc(N2CCCCC2)cc1)c1ccc(Br)s1 | 52.8 | 69.5 | > 100
73.8 | ≥ 100 | O=C(/C=C/c1ccc(N2CCCCC2)cc1)c1cccs1 | 11.6 | 65.5 | > 100
11.6 | 23.1 | Cc1csc(C(=O)/C=C/c2ccc(N3CCCCC3)cc2)c1 | 33.3 | 56.3 | 68.8

The remaining lines, values behind:

Compound | EC50 [1] [µM] | EC90 [1] [µM] | IC50 (CCRF-CEM) [µM] | IC50 (Vero) [µM] | IC50 (PBMC) [µM]
Cc1ccc(C(=O)/C=C/c2ccc(N3CCCCC3)cc2)s1 | 17.9 | 30.9 | 21.2 | 50.5 | 77.8
Cc1csc(C2=NNC(c3ccc(N4CCCCC4)cc3)C2)c1 (configuration not stated) | 13 | 24.9 | 16.3 | 31.6 | 24.4
Brc1ccc(C2=NNC(c3ccc(N4CCCCC4)cc3)C2)s1 (configuration not stated) | 9 | 33.3 | 21.5 | 25.8 | 80
O=C(/C=C/c1ccc(N2CCCCC2)cc1)c1ccc(Cl)s1 | 35.4 | ≥ 100 | 41.5 | 32.4 | > 100
Cc1ccsc1C1=NNC(c2ccc(N3CCCCC3)cc2)C1 (configuration not stated) | 5.1 | 15.5 | 2.3 | 11.4 | 11
Clc1ccsc1C1=NNC(c2ccc(N3CCCCC3)cc2)C1 (configuration not stated) | 2.4 | 13.1 | 10.2 | 31.6 | 34.2
Cc1cn([C@H]2C[C@H](N=[N+]=[N-])[C@@H](CO)O2)c(=O)[nH]c1=O [ZIDOVUDINE] |  | 0.026 |  |  | > 100
Clc1ccc(C2=NNC(c3ccc(N4CCCCC4)cc3)C2)s1 (configuration not stated) | 75.3 | > 100 | > 100 | > 100 | > 100
Ic1ccc(C2=NNC(c3ccc(N4CCCCC4)cc3)C2)s1 (configuration not stated) | 14.5 | 43.6 | 36.5 | 15.9 | > 100
Clc1cc(C2=NNC(c3ccc(N4CCCCC4)cc3)C2)c(Cl)s1 (configuration not stated) | 32.5 | > 100 | 37.7 | 53.9 | 59
Cc1cc(C(=O)/C=C/c2ccc(N3CCCCC3)cc2)c(C)s1 | 11.6 | 23.6 | 16.6 | 42.3 | 38.2
Cc1ccc(C2=NNC(c3ccc(N4CCCCC4)cc3)C2)s1 (configuration not stated) | 7.2 | 52.9 | 15.3 | 52 | 86.4
c1csc(C2=NNC(c3ccc(N4CCCCC4)cc3)C2)c1 (configuration not stated) | 7.3 | 26.8 | 6.9 | 3.2 | 20.8
Brc1ccsc1C1=NNC(c2ccc(N3CCCCC3)cc2)C1 (configuration not stated) | 17.4 | 30.4 | 31.6 | 24.8 | 57
O=C(/C=C/c1ccc(N2CCCCC2)cc1)c1cc(Cl)sc1Cl | 11.8 | 24.7 | 15 | 24.9 | 42.8
Cc1cc(C2=NNC(c3ccc(N4CCCCC4)cc3)C2)c(C)s1 (configuration not stated) | 16.9 | 29.8 | 20.1 | 83.4 | 77.5
c1cc(C2=NNC(c3ccc(N4CCCCC4)cc3)C2)cs1 (configuration not stated) | 11.3 | ≥ 100 | 27 | 29.5 | > 100
